According to ChEMBL document CHEMBL3886340, “2-substituted-3-phenylpropionic acid derivatives and their use in the treatment of inflammatory bowel disease” (2015):

How the values were obtained:
[1] = molecular target: T1, Peroxisome proliferator-activated receptor gamma (Homo sapiens, UniProt P37231); assay: (§1) Reporter Gene Assay: Transactivation Assay Expression vectors were prepared by inserting the ligand binding domain cDNA (complementary DNA) of human PPARalpha (amino acid 168-468) and human PPARgamma (amino acid 205-505), 3′ to and in frame with, the yeast GAL4 transcription factor DNA binding domain and the nuclear localization signal from the T-antigen of Polyoma Virus into the mammalian expression vector pSGS (Stratagene). The resulting expression vectors pSGGAL-PPARalpha and pSGGAL-PPARgamma were used in co-transfection experiments together with a modified pGL3 promoter plasmid (Promega) containing five copies of the UAS GAL4 recognition site. 2.5 μg pSGGAL-PPARalpha or pSGGAL-PPARgamma were mixed with 25 μg pGL3p […] and 22.5 μg pBluescript (Stratagene) in 0.95 mL ice cold PBS containing between 9-12 million U-2 OS (human osteosarcoma) cells. The cell/DNA mixture was incubated on ice for 5 minutes and then divided between two 0.4 cm cuvettes and electroporated at 960 μF, 2
T1 sequence (P37231 whole entry): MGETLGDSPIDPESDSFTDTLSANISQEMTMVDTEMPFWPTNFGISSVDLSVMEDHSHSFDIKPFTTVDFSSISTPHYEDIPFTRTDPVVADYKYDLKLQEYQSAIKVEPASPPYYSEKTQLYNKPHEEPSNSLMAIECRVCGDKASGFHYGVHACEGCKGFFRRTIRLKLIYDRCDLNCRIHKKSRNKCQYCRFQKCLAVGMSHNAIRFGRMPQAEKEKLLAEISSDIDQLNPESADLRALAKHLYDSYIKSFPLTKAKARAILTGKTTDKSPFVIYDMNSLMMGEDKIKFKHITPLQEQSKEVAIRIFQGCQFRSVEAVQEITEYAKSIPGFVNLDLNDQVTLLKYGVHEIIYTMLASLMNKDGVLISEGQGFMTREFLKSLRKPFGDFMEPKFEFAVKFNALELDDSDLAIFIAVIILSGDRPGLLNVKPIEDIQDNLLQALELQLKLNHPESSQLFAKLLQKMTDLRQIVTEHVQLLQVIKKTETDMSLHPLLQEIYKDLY

[2] = molecular target: T2, Peroxisome proliferator-activated receptor alpha (Homo sapiens, UniProt Q07869); assay: as §1
T2 sequence (Q07869 whole entry): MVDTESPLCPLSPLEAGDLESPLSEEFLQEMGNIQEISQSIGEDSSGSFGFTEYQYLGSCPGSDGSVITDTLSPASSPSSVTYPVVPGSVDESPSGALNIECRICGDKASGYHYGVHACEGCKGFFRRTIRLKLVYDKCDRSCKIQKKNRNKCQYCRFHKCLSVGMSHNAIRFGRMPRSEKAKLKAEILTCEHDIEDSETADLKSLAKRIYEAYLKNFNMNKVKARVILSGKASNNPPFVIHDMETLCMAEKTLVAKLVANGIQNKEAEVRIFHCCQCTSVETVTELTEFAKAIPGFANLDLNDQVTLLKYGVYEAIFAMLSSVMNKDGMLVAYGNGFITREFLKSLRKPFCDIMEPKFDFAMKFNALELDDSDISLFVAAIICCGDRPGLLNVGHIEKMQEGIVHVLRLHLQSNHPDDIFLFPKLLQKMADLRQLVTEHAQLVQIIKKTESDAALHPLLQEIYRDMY

SMILES	EC50 [1] [µM]	EC50 [2] [µM]
CS(=O)(=O)Oc1ccc(C(=O)OCc2ccc(CC(SCCc3ccc(F)cc3)C(=O)O)cc2)cc1 (stereo unspecified)	1.8	0.24
O=C(Cc1ccccn1)OCc1ccc(CC(SCCc2ccc(F)cc2)C(=O)O)cc1 (stereo unspecified)	2.1	1.5
CS(=O)(=O)Oc1ccc(CC(=O)OCc2ccc(CC(SCCc3ccc(F)cc3)C(=O)O)cc2)cc1 (stereo unspecified)	1.7	0.24
